Measurements published in PubChem BioAssay (NCI).
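Each compound was tested at five concentrations against cells in 96-well plates for 48 hours. GI50 = concentration required for 50% inhibition of growth. Definition used: TGI = concentration required for complete inhibition of growth.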

How the values were obtained:
Test in all cases: growth of human tumour cells (NCI), 48 h
[1] = test system: OVCAR-4 ovarian
[2] = test system: HCT-116 colon
[3] = test system: MDA-MB-435
[4] = test system: DU-145 prostate
[5] = test system: TK-10 renal
[6] = test system: SN12C renal
[7] = test system: NCI-H226 lung
[8] = test system: MDA-MB-231 breast
[9] = test system: T-47D breast
[10] = test system: NCI/ADR-RES ovarian

SMILES	GI50 [1] [µM]	TGI [1] [µM]	GI50 [2] [µM]	TGI [2] [µM]	GI50 [3] [µM]	TGI [3] [µM]	GI50 [4] [µM]	TGI [4] [µM]	GI50 [5] [µM]	TGI [5] [µM]	GI50 [6] [µM]	TGI [6] [µM]	GI50 [7] [µM]	TGI [7] [µM]	GI50 [8] [µM]	TGI [8] [µM]	GI50 [9] [µM]	TGI [9] [µM]	GI50 [10] [µM]	TGI [10] [µM]
CCCCCCCCCCCCCC[n+]1ccc(C)cc1	0.523	2.71	0.403	2.01	0.638	2.16	0.608	1.83	0.627	2.11	1.56	4.11	0.915	5.59	1.34	3.7	0.831	10.6	11.8	37
O=C(O)/C=C/c1c[nH]c(=O)[nH]c1=O	> 500	> 500	–	> 500	–	–	–	–	–	–	> 500	> 500	–	> 500	–	–	–	–	–	> 472
COc1ccc(-c2c(-c3ccccc3)c(C)nc3nc(SC)nc(SC)c23)cc1OC	–	–	–	32.2	–	> 100	–	> 100	–	> 100	–	> 100	–	82.9	–	> 100	–	> 100	–	–
CC12CCC(CC1)C(C)(C)O2	–	129	12.6	81.3	–	–	–	–	–	–	–	71.7	6.25	42.4	–	–	–	–	–	266
CC(C)c1ccccc1SCc1cc(=O)cc(CSc2ccccc2C(C)C)o1	–	46.9	–	–	–	32.8	–	55.4	–	38.7	–	–	–	41.7	–	49.5	–	> 100	–	41.5
Cc1cccc(N2C(=O)C3c4[nH]c5ccc(C)cc5c4C4CCC(C(C)(C)C)CC4C3C2=O)c1 (stereo unspecified)	–	> 100	–	–	–	> 100	–	38.7	–	59.8	–	–	–	36.5	–	38.4	–	52.1	–	48.5
CSc1nc(N)c2c(-c3ccccc3)c3c(nc2n1)CCCC3	–	> 100	–	> 100	–	> 100	–	> 100	–	> 100	–	> 100	–	–	–	> 100	–	> 100	–	> 100
C=C1C(=O)OC2CC(C)C3C4OC4C(O)C3(C)C(O)C12 (stereo unspecified)	–	59.7	–	55.6	–	–	–	–	–	–	–	72	–	> 68	–	–	–	–	–	91.9
C=C=CC(NC(=O)c1ccccc1)(C(=O)O)C(F)(F)F (stereo unspecified)	–	–	–	> 100	–	–	–	–	–	> 100	–	> 100	–	> 100	–	–	–	–	–	–
C/C(N=NS(=O)(=O)c1ccc([N+](=O)[O-])cc1)=C1\C=CC=CN1O	–	> 100	–	> 100	–	–	–	–	–	> 100	–	> 100	–	–	–	–	–	–	–	–
CCCCOP(C)(=O)C(NC(=O)OCC)(C(F)(F)F)C(F)(F)F (stereo unspecified)	–	> 100	–	> 100	–	> 100	–	> 100	–	> 100	–	> 100	–	> 100	–	> 100	–	> 100	–	> 100
O=C1/C(=C/c2ccc(O)cc2)COc2ccc(O)c(O)c21	2.85	65.9	1.76	3.41	2.03	4.91	2.19	5.69	3.12	> 100	–	–	8.37	34.8	–	–	3.31	> 100	2.91	> 100
O=C(SCc1cccc2ccccc12)c1ccc(Cl)cc1	–	> 100	–	> 100	–	> 100	–	> 100	–	> 100	–	> 100	–	> 100	–	> 100	–	> 100	–	> 100
